System: alkaline phosphatase activity in T47D cells
Experiment: Effects of progestins and antiprogestins on alkaline phosphatase activity in T47D cells (antagonist mode)
Type: cell-based
Settings: Homo sapiens, in the presence of 1 nM progesterone, 24 h, read-out: T47D Alkaline Phosphatase Activity IC50 (nM) or % inhibition
Work on CCCCC1COC(=O)N1c1nc(-c2ccc(C#N)cc2)cs1 (stereo not drawn) [Example 48, 4-[2-(4-Butyl-2-oxo-1,3-oxazolidin-3-yl)-1,3-thiazol-4-yl]benzonitrile] yielded an IC50 of 23.3 nM.
For CCC1COC(=O)N1c1nc(-c2ccc(Br)cc2)cs1 (stereo not drawn) [Example 49, 3-[4-(4-Bromophenyl)-1,3-thiazol-2-yl]-4-ethyl-1,3-oxazolidin-2-one], the IC50 was 39 nM.
Compound CC1COC(=O)N1c1nc(-c2ccc(Br)cc2)cs1 (stereo not drawn) [Example 50, 3-[4-(4-Bromophenyl)-1,3-thiazol-2-yl]-4-methyl-1,3-oxazolidin-2-one] has an IC50 of 17.7 nM.
CC1COC(=O)N1c1nc(-c2ccc(C#N)cc2)cs1 (stereo not drawn) [Example 51, 4-[2-(4-Methyl-2-oxo-1,3-oxazolidin-3-yl)-1,3-thiazol-4-yl]benzonitrile] gave an IC50 of 16.1 nM.
CC1(C)COC(=O)N1c1nc(-c2ccc(C#N)cc2)c(F)s1 [Example 58, 4-[2-(4,4-dimethyl-2-oxo-1,3-oxazolidin-3-yl)-5-fluoro-1,3-thiazol-4-yl]benzonitrile] gave an IC50 of 4 nM.
With O=C1OCC(C(F)(F)F)N1c1nc(-c2ccc(Br)cc2)cs1 (stereo not drawn) [Example 64, 3-[4-(4-Bromophenyl)-1,3-thiazol-2-yl]-4-(trifluoromethyl)-1,3-oxazolidin-2-one] the IC50 was 291 nM.
N#Cc1ccc(-c2csc(N3C(=O)OC[C@H]3C(F)(F)F)n2)cc1 [Example 65, 4-{2-[(4S)-2-Oxo-4-(trifluoromethyl)-1,3-oxazolidin-3-yl]-1,3-thiazol-4-yl}benzonitrile] showed an IC50 of 43.2 nM.
Compound N#Cc1ccc(-c2csc(N3C(=O)OC[C@@H]3C(F)(F)F)n2)cc1 [Example 66, 4-{2-[(4R)-2-oxo-4-(trifluoromethyl)-1,3-oxazolidin-3-yl]-1,3-thiazol-4-yl}benzonitrile] has an IC50 of 482 nM.
With O=C1OC[C@@H](CF)N1c1nc(-c2ccc(Br)cc2)cs1 [Example 73, (4S)-3-[4-(4-Bromophenyl)-1,3-thiazol-2-yl]-4-(fluoromethyl)-1,3-oxazolidin-2-one] the IC50 was 21.4 nM.
Work on N#Cc1ccc(-c2csc(N3C(=O)OC[C@H]3CF)n2)cc1 [Example 74, 4-{2-[(4S)-4-(Fluoromethyl)-2-oxo-1,3-oxazolidin-3-yl]-1,3-thiazol-4-yl}benzonitrile] yielded an IC50 of 19.8 nM.
O=C1NCCN1c1nc(-c2ccc(Br)cc2)cs1 [Example 75, 1-[4-(4-Bromophenyl)-1,3-thiazol-2-yl]imidazolidin-2-one] showed an IC50 of 1070 nM.

Target: T1, progesterone receptor (PR) (Homo sapiens, UniProt P06401)
T1 construct: in live, intact (whole) cells using the human breast carcinoma T47D cell line; endogenous in cells; host or cells: T47D human breast carcinoma cells
T1 sequence (P06401 1-933): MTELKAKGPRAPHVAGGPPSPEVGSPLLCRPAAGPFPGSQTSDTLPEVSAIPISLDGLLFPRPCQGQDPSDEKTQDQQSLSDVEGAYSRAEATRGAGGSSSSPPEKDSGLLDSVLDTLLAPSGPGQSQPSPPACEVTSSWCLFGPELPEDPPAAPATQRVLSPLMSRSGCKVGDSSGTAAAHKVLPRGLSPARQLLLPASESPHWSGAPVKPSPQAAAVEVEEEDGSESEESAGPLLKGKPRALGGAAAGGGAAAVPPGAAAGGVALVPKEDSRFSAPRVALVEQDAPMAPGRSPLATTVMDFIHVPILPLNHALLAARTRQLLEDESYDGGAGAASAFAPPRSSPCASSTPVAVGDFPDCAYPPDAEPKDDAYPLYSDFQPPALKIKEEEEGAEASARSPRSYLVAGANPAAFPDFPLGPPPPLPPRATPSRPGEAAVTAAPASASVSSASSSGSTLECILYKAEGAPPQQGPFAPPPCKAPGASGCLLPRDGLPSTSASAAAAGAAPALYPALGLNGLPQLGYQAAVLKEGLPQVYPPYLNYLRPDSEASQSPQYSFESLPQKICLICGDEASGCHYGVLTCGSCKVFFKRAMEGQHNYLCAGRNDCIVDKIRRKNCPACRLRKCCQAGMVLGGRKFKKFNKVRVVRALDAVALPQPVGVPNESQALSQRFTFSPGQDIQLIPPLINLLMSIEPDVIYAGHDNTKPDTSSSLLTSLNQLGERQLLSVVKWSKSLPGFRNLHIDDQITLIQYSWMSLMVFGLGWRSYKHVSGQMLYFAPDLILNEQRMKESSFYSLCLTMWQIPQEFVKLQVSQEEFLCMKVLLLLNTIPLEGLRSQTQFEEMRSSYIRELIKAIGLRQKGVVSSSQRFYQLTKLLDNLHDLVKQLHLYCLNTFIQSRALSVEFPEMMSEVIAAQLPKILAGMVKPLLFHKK
Experiment: Progesterone receptor whole cell competition binding assay using T47D cells
Settings: intact T47D cells, 3 nM 3H-progesterone, 3 h at 37° C.
Procedure: (2) Progesterone Receptor Whole Cell Competition Binding Assay Using T47D Cells
PURPOSE: To evaluate the progesterone receptor (PR) binding activity of progestins or antiprogestins in live, intact (whole) cells using the human breast carcinoma T47D cell line and ^3H-progesterone as the labeled ligand.
Culture Medium: • 5% RC: phenol red free DMEM:F12 (1:1) (GIBCO, BRL) supplemented with 5% (v/v) charcoal stripped fetal bovine serum (not heat-inactivated), 100 U/mL penicillin, 100 μg/mL streptomycin, and 2 mM the GlutaMax™ reagent (GIBCO, BRL). • 10% RC: Same as above supplemented with 10% (v/v) FBS. • ^3H-Progesterone: Perkin Elmer Life Science, cat# NET-381 (typically around 102 Ci/mmol)
T47D cells were maintained in 10% RC media at 37° C. in a 5% CO2/humidified atmosphere and were split twice weekly for proper response. Cells were plated in 10% RC the day before binding assay at 50,000 cells per well in the white, clear bottom plates purchased through VWR or Perkin Elmer.
Cells plated the day prior to the assay in white clear bottom plates were used. A master compound plate was set up containing control and test compounds at 20× final desired concentration for the competition binding. A typical dose range of 20× concentrations were (in nM); 200,000; 20,000; 6000; 2000; 600; 200; 20; and 2. Final concentrations were (in nM); 10,000; 1000; 300; 100; 30; 10; 1; 0.1. Control compounds were typically run 10-fold lower than this and include a 0, or vehicle, control well. A stock of 60 nM ^3H-progesterone (20×) were also prepared at a volume needed of 10 μL per well.
Media on cells were replaced with 180 μL of 5% RC. Ten microliters (10 μL) of 60 nM ^3H-progesterone (for final concentration of 3 nM) was added immediately, followed by 10 μL of 20× test or control compounds. Compounds were incubated for 3 h at 37° C. (A time course study found no difference between 2 and 4 h incubation.)
Following incubation, media was carefully removed and cells were washed 3× with 200 μL 5% RC each wash. Fifty microliters of liquid scintillation cocktail was added and the plates were shaken vigorously for a minimum of 15 min. Plates were read on the Wallac Microbeta® 1450 plate reader.
Square root-transformed data were used for analysis of variance and calculation of IC50. SAS software (SAS Institute, Inc.) was used for all the statistical analysis.
Progesterone was used as a reference progestin and RU486 as a reference antiprogestin.
In the case of CCCCC1COC(=O)N1c1nc(-c2ccc(C#N)cc2)cs1 (stereo not drawn) [Example 48, 4-[2-(4-Butyl-2-oxo-1,3-oxazolidin-3-yl)-1,3-thiazol-4-yl]benzonitrile], the Ki is reported as 128 nM.
With CCC1COC(=O)N1c1nc(-c2ccc(Br)cc2)cs1 (stereo not drawn) [Example 49, 3-[4-(4-Bromophenyl)-1,3-thiazol-2-yl]-4-ethyl-1,3-oxazolidin-2-one] the Ki was 68 nM.
Work on CC1COC(=O)N1c1nc(-c2ccc(Br)cc2)cs1 (stereo not drawn) [Example 50, 3-[4-(4-Bromophenyl)-1,3-thiazol-2-yl]-4-methyl-1,3-oxazolidin-2-one] yielded a Ki of 36.6 nM.
Compound CC1COC(=O)N1c1nc(-c2ccc(C#N)cc2)cs1 (stereo not drawn) [Example 51, 4-[2-(4-Methyl-2-oxo-1,3-oxazolidin-3-yl)-1,3-thiazol-4-yl]benzonitrile] has a Ki of 42.6 nM.
With CC1(C)COC(=O)N1c1nc(-c2ccc(C#N)cc2)c(F)s1 [Example 58, 4-[2-(4,4-dimethyl-2-oxo-1,3-oxazolidin-3-yl)-5-fluoro-1,3-thiazol-4-yl]benzonitrile] the Ki was 16.1 nM.
O=C1OCC(C(F)(F)F)N1c1nc(-c2ccc(Br)cc2)cs1 (stereo not drawn) [Example 64, 3-[4-(4-Bromophenyl)-1,3-thiazol-2-yl]-4-(trifluoromethyl)-1,3-oxazolidin-2-one] gave a Ki of 234 nM.
For N#Cc1ccc(-c2csc(N3C(=O)OC[C@H]3C(F)(F)F)n2)cc1 [Example 65, 4-{2-[(4S)-2-Oxo-4-(trifluoromethyl)-1,3-oxazolidin-3-yl]-1,3-thiazol-4-yl}benzonitrile], the Ki was 60.3 nM.
N#Cc1ccc(-c2csc(N3C(=O)OC[C@@H]3C(F)(F)F)n2)cc1 [Example 66, 4-{2-[(4R)-2-oxo-4-(trifluoromethyl)-1,3-oxazolidin-3-yl]-1,3-thiazol-4-yl}benzonitrile] gave a Ki of 212 nM.
Compound O=C1OC[C@@H](CF)N1c1nc(-c2ccc(Br)cc2)cs1 [Example 73, (4S)-3-[4-(4-Bromophenyl)-1,3-thiazol-2-yl]-4-(fluoromethyl)-1,3-oxazolidin-2-one] has a Ki of 31.5 nM.
In the case of N#Cc1ccc(-c2csc(N3C(=O)OC[C@H]3CF)n2)cc1 [Example 74, 4-{2-[(4S)-4-(Fluoromethyl)-2-oxo-1,3-oxazolidin-3-yl]-1,3-thiazol-4-yl}benzonitrile], the Ki is reported as 45.1 nM.
Work on O=C1NCCN1c1nc(-c2ccc(Br)cc2)cs1 [Example 75, 1-[4-(4-Bromophenyl)-1,3-thiazol-2-yl]imidazolidin-2-one] yielded a Ki of 2080 nM.

System: not given
Experiment: not given
Settings: not given
With CCCCC1COC(=O)N1c1nc(-c2ccc(C#N)cc2)cs1 (stereo not drawn) [Example 48, 4-[2-(4-Butyl-2-oxo-1,3-oxazolidin-3-yl)-1,3-thiazol-4-yl]benzonitrile] the melting point was 134 to 137 °C.
CCC1COC(=O)N1c1nc(-c2ccc(Br)cc2)cs1 (stereo not drawn) [Example 49, 3-[4-(4-Bromophenyl)-1,3-thiazol-2-yl]-4-ethyl-1,3-oxazolidin-2-one] gave a melting point of 148.5 °C.
With CC1COC(=O)N1c1nc(-c2ccc(Br)cc2)cs1 (stereo not drawn) [Example 50, 3-[4-(4-Bromophenyl)-1,3-thiazol-2-yl]-4-methyl-1,3-oxazolidin-2-one] the melting point was 189 to 190 °C.
CC1COC(=O)N1c1nc(-c2ccc(C#N)cc2)cs1 (stereo not drawn) [Example 51, 4-[2-(4-Methyl-2-oxo-1,3-oxazolidin-3-yl)-1,3-thiazol-4-yl]benzonitrile] showed a melting point of 215 to 216 °C.
For CC1(C)COC(=O)N1c1nc(-c2ccc(C#N)cc2)c(F)s1 [Example 58, 4-[2-(4,4-dimethyl-2-oxo-1,3-oxazolidin-3-yl)-5-fluoro-1,3-thiazol-4-yl]benzonitrile], the melting point was 177 to 178 °C.
For O=C1OCC(C(F)(F)F)N1c1nc(-c2ccc(Br)cc2)cs1 (stereo not drawn) [Example 64, 3-[4-(4-Bromophenyl)-1,3-thiazol-2-yl]-4-(trifluoromethyl)-1,3-oxazolidin-2-one], the melting point was 154 to 156 °C.
With N#Cc1ccc(-c2csc(N3C(=O)OC[C@H]3C(F)(F)F)n2)cc1 [Example 65, 4-{2-[(4S)-2-Oxo-4-(trifluoromethyl)-1,3-oxazolidin-3-yl]-1,3-thiazol-4-yl}benzonitrile] the melting point was 208 to 209 °C.
Work on N#Cc1ccc(-c2csc(N3C(=O)OC[C@@H]3C(F)(F)F)n2)cc1 [Example 66, 4-{2-[(4R)-2-oxo-4-(trifluoromethyl)-1,3-oxazolidin-3-yl]-1,3-thiazol-4-yl}benzonitrile] yielded a melting point of 208 to 209 °C.
O=C1OC[C@@H](CF)N1c1nc(-c2ccc(Br)cc2)cs1 [Example 73, (4S)-3-[4-(4-Bromophenyl)-1,3-thiazol-2-yl]-4-(fluoromethyl)-1,3-oxazolidin-2-one] showed a melting point of 148 to 150 °C.
In the case of N#Cc1ccc(-c2csc(N3C(=O)OC[C@H]3CF)n2)cc1 [Example 74, 4-{2-[(4S)-4-(Fluoromethyl)-2-oxo-1,3-oxazolidin-3-yl]-1,3-thiazol-4-yl}benzonitrile], the melting point is reported as 195 to 196 °C.
In the case of O=C1NCCN1c1nc(-c2ccc(Br)cc2)cs1 [Example 75, 1-[4-(4-Bromophenyl)-1,3-thiazol-2-yl]imidazolidin-2-one], the melting point is reported as 230 to 233 °C.

Source: patent US7618990B2, “Oxazolidone derivatives as PR modulators” (Wyeth, priority 2006, dated 2009)
